Assay results as given in ChEMBL document CHEMBL1157143, “Modeling and synthesis of novel tight-binding inhibitors of cytochrome P450 2C9” (Bioorg Med Chem, 2008).

How the values were obtained:
[1] = Dissociation constant, pKa of the compound
Cytochrome P450 2C9 = Cytochrome P450 2C9 (Homo sapiens, UniProt P11712); test: Binding affinity to CYP2C9
Chain of Cytochrome P450 2C9 (P11712 whole entry): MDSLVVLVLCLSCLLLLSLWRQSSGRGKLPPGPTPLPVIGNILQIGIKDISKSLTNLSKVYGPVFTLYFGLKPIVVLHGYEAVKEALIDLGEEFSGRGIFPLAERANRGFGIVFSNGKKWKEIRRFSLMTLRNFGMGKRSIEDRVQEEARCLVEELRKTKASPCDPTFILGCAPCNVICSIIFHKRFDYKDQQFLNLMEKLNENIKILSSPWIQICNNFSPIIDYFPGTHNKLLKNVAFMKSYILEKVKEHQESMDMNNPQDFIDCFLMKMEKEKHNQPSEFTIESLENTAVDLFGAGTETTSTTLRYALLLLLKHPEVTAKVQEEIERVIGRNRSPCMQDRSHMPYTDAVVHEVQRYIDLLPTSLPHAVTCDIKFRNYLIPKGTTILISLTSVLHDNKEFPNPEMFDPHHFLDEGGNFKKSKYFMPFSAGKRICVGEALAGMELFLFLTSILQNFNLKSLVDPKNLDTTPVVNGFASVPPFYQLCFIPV

SMILES | pKa [1] | Ki (Cytochrome P450 2C9) [nM]
CCc1oc2ccccc2c(=O)c1C(=O)c1cc(Br)c(O)c(Br)c1 | 4.72 | 
Cc1oc2ccccc2c(=O)c1C(=O)c1ccc(O)cc1 | 7.74 | 6740
CCCc1oc2ccccc2c(=O)c1C(=O)c1cc(I)c(O)c(I)c1 | 4.89 | 4.2
CCc1oc2ccccc2c(=O)c1C(=O)c1cc(I)c(O)c(I)c1 | 4.89 | 23
CCc1oc2ccccc2c(=O)c1C(=O)c1ccncc1 |  | 4870
COc1ccc(C(=O)c2c(C)oc3ccccc3c2=O)cc1 |  | 5930
CCc1oc2ccccc2c(=O)c1C(=O)c1ccc(OC)cc1 |  | 6480

The remaining molecules from weak to strong by Ki (Cytochrome P450 2C9), led by results:

pKa [1] | Ki (Cytochrome P450 2C9) [nM] | SMILES
 | 3120 | CCCc1oc2ccccc2c(=O)c1C(=O)c1ccc(OC)cc1
7.74 | 1420 | CCc1oc2ccccc2c(=O)c1C(=O)c1ccc(O)cc1
7.74 | 656 | CCCc1oc2ccccc2c(=O)c1C(=O)c1ccc(O)cc1
 | 44.3 | CCCc1oc2ccccc2c(=O)c1C(=O)c1cc(I)c(OC)c(I)c1
4.89 | 41 | Cc1oc2ccccc2c(=O)c1C(=O)c1cc(I)c(O)c(I)c1
